According to ChEMBL document CHEMBL3885881, “DrugMatrix”:

Organism: Rattus norvegicus
Experiment: DrugMatrix - Regimen: Daily Repeat
Format: toxicity, organism-based, Sprague-Dawley
Design: regimen Daily Repeat, gender Male, age 6-8 weeks
Conditions: in vivo, po, 0 mg/kg, route oral GAVAGE, dose level Control, […]; for ABSOLUTE BASOPHIL / ABSOLUTE EOSINOPHIL / ABSOLUTE LYMPHOCYTE / ABSOLUTE MONOCYTE / BASOPHIL / EOSINOPHIL / ERYTHROCYTE COUNT / HEMATOCRIT / HEMOGLOBIN / LEUKOCYTE COUNT / LYMPHOCYTE / MEAN CORPUSCULAR HEMOGLOBIN / MEAN CORPUSCULAR HEMOGLOBIN CONCENTRATION / MEAN CORPUSCULAR VOLUME / MONOCYTE / NEUTROPHIL / PLATELET COUNT: tissue Blood
[1] = 72 h, tissue Plasma, time 3 day
[2] = 120 h, tissue Plasma, time 5 day

Clc1ccc(Cl)cc1 [1,4-DICHLOROBENZENE]
ABSOLUTE BASOPHIL (72 h, time 3 day): 50 cells/µL
ABSOLUTE EOSINOPHIL (72 h, time 3 day): 43.3 cells/µL
ABSOLUTE LYMPHOCYTE (72 h, time 3 day): 9670 cells/µL
ABSOLUTE MONOCYTE (72 h, time 3 day): 210 cells/µL
BASOPHIL (72 h, time 3 day): 0.4%
EOSINOPHIL (72 h, time 3 day): 0.37%
ERYTHROCYTE COUNT (72 h, time 3 day): 6.82 x10E6/uL
HEMATOCRIT (72 h, time 3 day): 46.77%
HEMOGLOBIN (72 h, time 3 day): 14.53 G/DL
LEUKOCYTE COUNT (72 h, time 3 day): 11.77 x10E3/uL
LYMPHOCYTE (72 h, time 3 day): 82.1%
MEAN CORPUSCULAR HEMOGLOBIN (72 h, time 3 day): 21.33 pg
MEAN CORPUSCULAR HEMOGLOBIN CONCENTRATION (72 h, time 3 day): 31.13 G/DL
MEAN CORPUSCULAR VOLUME (72 h, time 3 day): 68.57 fL
MONOCYTE (72 h, time 3 day): 1.8%
NEUTROPHIL (72 h, time 3 day): 14.83%
PLATELET COUNT (72 h, time 3 day): 1303.33 x10E3/uL
ALANINE AMINOTRANSFERASE [1]: 46.67 u/L
ALBUMIN [1]: 4.17 G/DL
ALKALINE PHOSPHATASE [1]: 530 u/L
ASPARTATE AMINOTRANSFERASE [1]: 81.33 u/L
BLOOD UREA NITROGEN [1]: 17.67 mg/dL
CARBON DIOXIDE [1]: 41.67 mmol/L
CHLORIDE [1]: 102 MEQ/L
CHOLESTEROL [1]: 70.33 mg/dL
CREATINE PHOSPHOKINASE [1]: 372.67 u/L
CREATININE [1]: 0.5 mg/dL
GLUCOSE [1]: 184 mg/dL
LIPASE [1]: 13.33 u/L
PHOSPHORUS [1]: 10.2 mg/dL
POTASSIUM [1]: 6.13 MEQ/L
SODIUM [1]: 145 MEQ/L
TOTAL BILIRUBIN [1]: 0.43 mg/dL
TOTAL PROTEIN [1]: 6.7 G/DL
URIC ACID [1]: 0.83 mg/dL
ABSOLUTE BASOPHIL (120 h, time 5 day): 33.3 cells/µL
ABSOLUTE EOSINOPHIL (120 h, time 5 day): 56.7 cells/µL
ABSOLUTE LYMPHOCYTE (120 h, time 5 day): 9220 cells/µL
ABSOLUTE MONOCYTE (120 h, time 5 day): 230 cells/µL
BASOPHIL (120 h, time 5 day): 0.3%
EOSINOPHIL (120 h, time 5 day): 0.5%
ERYTHROCYTE COUNT (120 h, time 5 day): 6.62 x10E6/uL
HEMATOCRIT (120 h, time 5 day): 46.43%
HEMOGLOBIN (120 h, time 5 day): 14.3 G/DL
LEUKOCYTE COUNT (120 h, time 5 day): 10.96 x10E3/uL
LYMPHOCYTE (120 h, time 5 day): 83.83%
MEAN CORPUSCULAR HEMOGLOBIN (120 h, time 5 day): 21.57 pg
MEAN CORPUSCULAR HEMOGLOBIN CONCENTRATION (120 h, time 5 day): 30.77 G/DL
MEAN CORPUSCULAR VOLUME (120 h, time 5 day): 70.13 fL
MONOCYTE (120 h, time 5 day): 2.1%
NEUTROPHIL (120 h, time 5 day): 12.53%
PLATELET COUNT (120 h, time 5 day): 1056.67 x10E3/uL
ALANINE AMINOTRANSFERASE [2]: 41.33 u/L
ALBUMIN [2]: 4.07 G/DL
ALKALINE PHOSPHATASE [2]: 603.33 u/L
ASPARTATE AMINOTRANSFERASE [2]: 80 u/L
BLOOD UREA NITROGEN [2]: 14.67 mg/dL
CARBON DIOXIDE [2]: 43 mmol/L
CHLORIDE [2]: 104 MEQ/L
CHOLESTEROL [2]: 88.33 mg/dL
CREATINE PHOSPHOKINASE [2]: 391.67 u/L
CREATININE [2]: 0.47 mg/dL
GLUCOSE [2]: 156 mg/dL
LIPASE [2]: 10.67 u/L
PHOSPHORUS [2]: 9.03 mg/dL
POTASSIUM [2]: 6.1 MEQ/L
SODIUM [2]: 145.67 MEQ/L
TOTAL BILIRUBIN [2]: 0.37 mg/dL
TOTAL PROTEIN [2]: 6.53 G/DL
URIC ACID [2]: 0.5 mg/dL
ABSOLUTE BASOPHIL (time 14 day): 73.3 cells/µL
ABSOLUTE EOSINOPHIL (time 14 day): 60 cells/µL
ABSOLUTE LYMPHOCYTE (time 14 day): 12200 cells/µL
ABSOLUTE MONOCYTE (time 14 day): 250 cells/µL
BASOPHIL (time 14 day): 0.5%
EOSINOPHIL (time 14 day): 0.37%
ERYTHROCYTE COUNT (time 14 day): 7.33 x10E6/uL
HEMATOCRIT (time 14 day): 44.3%
HEMOGLOBIN (time 14 day): 14.77 G/DL
LEUKOCYTE COUNT (time 14 day): 14.86 x10E3/uL
LYMPHOCYTE (time 14 day): 81.87%
MEAN CORPUSCULAR HEMOGLOBIN (time 14 day): 20.2 pg
MEAN CORPUSCULAR HEMOGLOBIN CONCENTRATION (time 14 day): 33.33 G/DL
MEAN CORPUSCULAR VOLUME (time 14 day): 60.57 fL
MONOCYTE (time 14 day): 1.63%
NEUTROPHIL (time 14 day): 14.93%
PLATELET COUNT (time 14 day): 1101.67 x10E3/uL
ALANINE AMINOTRANSFERASE (tissue Plasma, time 14 day): 31.67 u/L
ALBUMIN (tissue Plasma, time 14 day): 3.83 G/DL
ALKALINE PHOSPHATASE (tissue Plasma, time 14 day): 430.67 u/L
ASPARTATE AMINOTRANSFERASE (tissue Plasma, time 14 day): 87 u/L
BLOOD UREA NITROGEN (tissue Plasma, time 14 day): 14.33 mg/dL
CARBON DIOXIDE (tissue Plasma, time 14 day): 39 mmol/L
CHLORIDE (tissue Plasma, time 14 day): 104 MEQ/L
CHOLESTEROL (tissue Plasma, time 14 day): 66 mg/dL
CREATINE PHOSPHOKINASE (tissue Plasma, time 14 day): 441.67 u/L
CREATININE (tissue Plasma, time 14 day): 0.7 mg/dL
GLUCOSE (tissue Plasma, time 14 day): 125.67 mg/dL
LACTATE DEHYDROGENASE (tissue Plasma, time 14 day): 397.67 u/L
LIPASE (tissue Plasma, time 14 day): 12.33 u/L
PHOSPHORUS (tissue Plasma, time 14 day): 9.87 mg/dL
POTASSIUM (tissue Plasma, time 14 day): 5.93 MEQ/L
SODIUM (tissue Plasma, time 14 day): 145 MEQ/L
TOTAL BILIRUBIN (tissue Plasma, time 14 day): 0.37 mg/dL
TOTAL PROTEIN (tissue Plasma, time 14 day): 6.27 G/DL
URIC ACID (tissue Plasma, time 14 day): 0.67 mg/dL
